The record followed here is US20180133211A1, “METHODS AND MATERIALS FOR PROMOTING BONE FORMATION” (Mayo Foundation for Medical Education and Research, priority 2015, published 2018).

The test system of experiment [1] is primary mouse osteoclasts. As to the kind of experiment: Osteoclastic resorption on dentin slices. The settings on record: 3 μM L- or DL-SFN, 14 days. It is filed as cell-based. The method, then: Primary mouse tissues or cells were obtained according to procedures that conform to the regulatory guidelines of the Institutional Animal Care and Use Committee of the Medical University of Vienna. Primary mouse osteoclasts were harvested from 8-week old C57BL/6 mice, which were sacrificed, and bone marrow cells were isolated from tibias and femurs under aseptic conditions and cultured in α-MEM (Biochrom) containing 10% FCS (Biochrom), […] (Sigma-Aldrich) and macrophage colony stimulating factor (MCSF1, 30 ng/mL). After 24 hours, non-adherent cells were seeded onto sterile, 300 μm thick dentin slices (elephant ivory) at 700,000 cells/cm^2 in αMEM supplemented with 10% FBS, 2 mM 1-glutamine, 30 μg/mL gentamycin, 20 ng/mL M-CSF, and 2 ng/mL RANKL (R&D Systems, Minneapolis, Minn., USA). Culture medium was changed twice per week, and cells were cultured for 14 days.
After culturing the primary mouse osteoclasts for 14 days on dentin slices in the presence or absence of 3 μM L- or DL-SFN, substrates were put into water, sonicated for 10 minutes to remove living cells and air-dried. Photographs were obtained by reflected light microscopy (objective 20×) of the entire substrate surface, and resorption trails and pits were analyzed and quantified with standard image analysis software (ImageJ, rsbweb.nih.gov/ij/). […]

The next experiment has as its system RAW 264.7 cells. As to the kind of experiment: RT-qPCR mRNA expression. It is filed as cell-based, mouse. The settings on record: RAW 264.7 induced with RANKL and MCSF, co-treatment with SFN. As to the method: Total RNA was extracted using the SV Total RNA Isolation kit (Promega) following the supplier's instructions. cDNA was synthesized from about 0.5 μg RNA using the First Strand cDNA Synthesis kit (Roche) as described by the supplier. The resulting cDNAs were subjected to quantitative PCR amplification with a real-time cycler using the QUANTITECT™ SYBR® Green PCR Kit (Qiagen, Hilden, Germany) for the genes Alpl, Fas, Lox, Tet1, Tet2, and TAQMAN® Gene expression Master Mix (Applied Biosystems, Foster City, Calif., USA) for measuring Runx2, Bglap2, Colla1, Tnfsf11, and 18S rRNA expression (for primers, see Table 1). SYBR-Green RT-qPCR was started with an initial denaturation step at 95° C. for 10 minutes and then continued with 45 cycles consisting of 30 seconds denaturation at 95° C., 30 seconds annealing at primer-specific temperatures, and extension at 72° C. For measurement of the TAQMAN® assays, an initial denaturation at 95° C. for 10 minutes was applied, followed by 45 cycles alternating 60 seconds at 60° C. and 15 seconds at 95° C. All RT-qPCR assays were performed in triplicate, and expression was evaluated using the comparative quantification method (Pfaffl, Nucleic Acids Res., 29:e45 (2001)).
(Real-time PCR tracks product formation cycle by cycle.)

The next experiment concerns MC3T3-E1 cells. Briefly: ECM mineralization by Alizarin Red stain. In kind it is cell-based, mouse. The settings on record: for matrix mineralization (Alizarin Red): MC3T3-E1, as early as 14 days of treatment. As to the method: Differentiation of MC3T3-E1 cells was induced with 50 μg/mL ascorbic acid (Sigma-Aldrich) and 5 mM β-glycerophosphate (Sigma-Aldrich) in medium containing 5% FBS. RAW 264.7 cells were cultured in Dulbecco's modified Eagle's medium (DMEM, Invitrogen, Carlsbad, Calif., USA) supplemented with 10% fetal bovine serum (Hyclone) and 2 mM glutamine (Gibco, Carlsbad, Calif., USA). Cells were seeded in culture dishes at a density of 20,000 cells/cm^2 and cultured overnight unless stated otherwise. Before cells were treated with compounds, the culture medium was changed.
Calvariae from 2 to 3-day-old and from 7-week old C57BL/6 mice were dissected aseptically. The calvarial bone explants were cultured in 48-well plates in α-MEM (Biochrom) containing 10% FCS (Biochrom), 50 μg/mL ascorbic acid (Sigma-Aldrich), 5 mM β-glycerophosphate (Sigma-Aldrich), and 10 μg/mL gentamicin (Sigma-Aldrich). The day after dissection, medium was changed, and a part of the explants was treated with 3 μM L- or DL-SFN for 12 days. Thereafter, one part of the calvariae were fixed for 1 hour in 4% para-formaldehyde (PFA), and mineralization was measured by Alizarin Red S stain (Sigma-Aldrich). For this purpose, Alizarin Red S dye was extracted using 10% cetylpyridinium chloride (CPC) in 10 mM sodiumphosphate (pH=7.0) for 45 minutes at room temperature. Alizarin Red S absorbance was measured at 562 nm in a multi-plate reader (Tecan, Maennedorf, Switzerland) and normalized to total protein amount measured by bicinchoninic acid assay (Thermo Fisher Scientific, Waltham, Mass., USA). From the other part of the calvariae, total RNA was extracted.

Experiment [2] relates to sham operated or ovariectomized (OVX) C57B16/J female mice. As to the kind of experiment: In vivo analysis of SFN effects on bone, μCT. Set-up: species or system mouse. As to conditions: OVX mice; mitigation of the OVX-dependent decrease of trabecular number. The method, then: Analysis of SFN on mice was performed using a protocol similar to that described elsewhere (Kong et al., Arthritis Rheum., 62:159-170 (2010)). In the experimental setting herein, eight week old sham operated or ovariectomized (OVX) C57B16/J female mice were purchased from Charles River laboratories. Mice were injected with 7.5 mM DL-SFN (200 μL of SFN at a concentration of 63.8 mg/mL/kg dissolved in ethanol and further diluted in PBS) intraperitoneally every other day for five weeks. Control mice received vehicle alone.
Images from tibias fixed in 4% formaldehyde were acquired in a SkyScan 1174 with a resolution of 6 μm (X-ray voltage 50 kV). Image reconstruction was performed by applying a modified Feldkamp algorithm using the Skyscan Nrecon software. 3D and 2D morphometric parameters were calculated for the trabecular bone (350 consecutive slides, 6 μm thick) starting from 300 μm from the growth plate. Threshold values were applied for segmenting trabecular bone corresponding to bone mineral density values of 0.6/cm^3 calcium hydroxyapatite. 3D parameters were based on analysis of a Marching Cubes type model with a rendered surface. Calculation all of 2D areas and perimeters was based on the Pratt algorithm (Pratt et al., IEEE Trans. Biomed. Eng., 38, 306-309 (1991). Bone structural variables and nomenclature were used according to Bouxsein et al. (J. Bone Miner. Res., 25:1468-1486 (2010)).

For a further experiment, the system named is MC3T3 cells. As to the kind of experiment: Osteogenic differentiation of MC3T3 cells under EZH2 inhibition. It is filed as cell-based, mouse. As to conditions: 1 μM UNC1999. The method, then:
MC3T3 cells were seeded in 6-well plates in maintenance medium (10,000 cells/cm^2). The following day, maintenance medium was replaced with osteogenic medium (αMEM supplemented with 50 μg/mL ascorbic acid (Sigma) and 4 mM beta glycerol phosphate (Sigma)) containing vehicle or EZH2 inhibitor. Three days later, vehicle or EZH2 inhibitors were added again with osteogenic medium. On day six, EZH2 inhibitor and vehicle were removed, and fresh osteogenic medium added.
Media were changed every three days. RNA was isolated at indicated times. On day 6, cells were fixed in 10% neutral buffered formalin and stained with 5-bromo-4-chloro-3-indolyl-phosphate/nitro blue tetrazolium to monitor the enzymatic activity of alkaline phosphatase (Promega). On day 14 (AMCs) and days 21-25 (MC3T3), cells were fixed in 10% neutral buffered formalin and stained with 2% Alizarin Red to visualize calcium deposition. Absorption of alizarin red stain was normalized to total DNA as measured by Hoechst staining of the nuclei.

As for “1-isothiocyanato-5-methanesulfinylpentane [SFN]”, in experiment [1], the “area resorbed by primary mouse osteoclast cultures on ivory discs” value was “significantly reduced”. Further, the “expression of classical osteoclastic markers (Acp5, Clcr, Ctsk)” value with RAW 264.7 cells is given as “no appreciable changes”. The “potency in stimulating matrix mineralization relative to DMSO” value in the experiment with MC3T3-E1 cells (MC3T3-E1) is “at least four orders of magnitude more potent than DMSO”. Besides, in the experiment with MC3T3-E1 cells, the “matrix mineralization (Alizarin Red)” value was “increased matrix mineralization”. Besides, in experiment [2], the “bone loss due to estrogen-deficiency” value is listed as “reduced bone loss”.
Regarding `C[S+](C)[O-]` [DMSO, methanesulfinyl methane], in the experiment on MC3T3-E1 cells, the “matrix mineralization (Alizarin Red)” value is “increased matrix mineralization”.
Turning to `CCCc1cc(C)[nH]c(=O)c1CNC(=O)c1cc(-c2ccc(N3CCN(C(C)C)CC3)nc2)cc2c1cnn2C(C)C` [UNC1999, N-[(6-methyl-2-oxo-4-propyl-1,2-dihydropyridin-3-yl)methyl]-1-(propan-2-yl)-6-{6-[4-(propan-2-yl)piperazin-1-yl]pyridin-3-yl}-1H-indazole-4-carboxamide], the “osteogenic differentiation of MC3T3 cells” value in the experiment on MC3T3 cells is listed as “promotes”.
